From patent publication US9540361B2, “N-substituted azetidine derivatives” (Merck Sharp & Dohme B.V., priority 2010, dated 2017)
Structures can show the parent of a compound that is named as a salt.

Target: T1, human estrogen receptor α (hERα) (Homo sapiens, UniProt P03372)
T1 sequence (P03372 1-595): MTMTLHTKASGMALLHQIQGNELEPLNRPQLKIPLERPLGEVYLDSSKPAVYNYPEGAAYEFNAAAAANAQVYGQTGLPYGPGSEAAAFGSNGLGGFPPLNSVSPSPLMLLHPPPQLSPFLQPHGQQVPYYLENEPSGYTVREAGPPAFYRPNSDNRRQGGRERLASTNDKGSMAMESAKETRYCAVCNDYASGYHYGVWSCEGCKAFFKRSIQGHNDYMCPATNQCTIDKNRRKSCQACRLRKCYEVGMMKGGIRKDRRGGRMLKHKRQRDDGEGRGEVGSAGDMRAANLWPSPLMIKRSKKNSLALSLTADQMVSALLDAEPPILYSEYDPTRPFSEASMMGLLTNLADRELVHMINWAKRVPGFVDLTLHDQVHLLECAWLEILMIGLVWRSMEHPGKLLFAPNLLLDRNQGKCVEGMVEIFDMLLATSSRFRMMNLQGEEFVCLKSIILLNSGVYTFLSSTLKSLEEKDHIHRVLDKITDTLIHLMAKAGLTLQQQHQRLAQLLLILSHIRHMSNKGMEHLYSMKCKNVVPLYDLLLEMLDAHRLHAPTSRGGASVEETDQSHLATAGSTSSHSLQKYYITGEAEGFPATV
Experiment: antagonistic activity in CHO cells co-transfected with hERα, rat oxytocin promoter and luciferase reporter gene
Type: cell-based
Settings: antagonism of 17β-estradiol-induced transactivation, CHO-hERα-RO-LUC; read-out: ERα pIC50 (converted)
Experimental: The antagonistic activity of compounds on the estrogen receptors was determined in an in vitro bioassay with recombinant Chinese Hamster Ovary (CHO) cells stably co-transfected with the human estrogen receptor α (hERα), the rat oxytocin promoter (RO) and the luciferase reporter gene (LUC). […] The antagonistic efficacy, i.e. the amount of maximal inhibition of the 17β-estradiol activated receptor by a compound, is expressed as fraction relative to the maximal inhibition as induced by the standard anti-estrogen ICI 164,384 (efficacy test compound=(maximal inhibition test compound/maximal inhibition ICI 164,384)). A more detailed description of the methodology can be found in De Gooyer et al., Steroids, 68 (2003) 21-30.

IC50 [nM] | Compound
0.398 | CCCN1CC(Oc2ccc(-c3c(-c4ccccc4C)noc3-c3ccc(O)cc3)cc2)C1 [compound 6j, 4-(4-(4-(1-propylazetidin-3-yloxy)phenyl)-3-o-tolylisoxazol-5-yl)phenol 2,2,2-trifluoroacetate]
0.501 | CCCN1CC(Oc2ccc(-c3c(-c4ccccc4Cl)noc3-c3ccc(O)cc3C)cc2)C1 [compound 6k, 4-(3-(2-chlorophenyl)-4-(4-(1-propylazetidin-3-yloxy)phenyl)isoxazol-5-yl)-3-methylphenol 2,2,2-trifluoroacetate]
0.631 | CCCN1CC(Oc2ccc(-c3c(-c4ccccc4Cl)noc3-c3ccc(O)c(C)c3)cc2)C1 [compound 6l, 4-(3-(2-chlorophenyl)-4-(4-(1-propylazetidin-3-yloxy)phenyl)isoxazol-5-yl)-2-methylphenol 2,2,2-trifluoroacetate]
1.58 | CCCN1CC(Oc2ccc(Cc3c(-c4ccccc4)c(=O)oc4cc(O)ccc34)cc2)C1 [compound 6r, 7-hydroxy-3-phenyl-4-(4-(1-propylazetidin-3-yloxy)benzyl)-2H-chromen-2-one 2,2,2-trifluoroacetate]
2.51 | CCCN1CC(Oc2ccc([C@H]3C[C@]4(C)[C@@H](O)CC[C@H]4[C@@H]4CCc5cc(O)ccc5C34)cc2)C1 (stereo partly drawn) [compound 6s, (8S,11S,13S,14S,17S)-13-methyl-11-(4-(1-propylazetidin-3-yloxy)phenyl)-7,-8,9,10,11,12,13,14,15,16,17-decahydro-6H-cyclopenta[a]phenanthrene-3,17-diol]
3.16 | C[C@]12C[C@H](c3ccc(OC4CN(CC5CC5)C4)cc3)C3c4ccc(O)cc4CC[C@H]3[C@@H]1CC[C@@H]2O (stereo partly drawn) [compound 6t, (8S,11S,13S,14S,17S)-11-(4-(1-(cyclopropylmethyl)azetidin-3-yloxy)phenyl)-13-methyl-7,8,9,10,11,12,13,14,15,16,17-decahydro-6H-cyclopenta[a]phenanthrene-3,17-diol]

Continued, compound first:

Compound | IC50 [nM]
CN1CC(Oc2ccc(-c3c(-c4ccc(O)cc4)sc4cc(O)ccc34)cc2)C1 [compound 6a, 2-(4-hydroxyphenyl)-3-(4-(1-methylazetidin-3-yloxy)phenyl)benzo[b]thiophen-6-ol 2,2,2-trifluoroacetate] | 0.794
CC(C)N1CC(Oc2ccc(C(=O)c3c(-c4ccc(O)cc4)sc4cc(O)ccc34)cc2)C1 [compound 6e, (6-hydroxy-2-(4-hydroxyphenyl)benzo[b]thiophen-3-yl)(4-(1-isopropylazetidin-3-yloxy)phenyl)methanone hydrochloride] | 1.58
Oc1ccc(-c2onc(-c3ccccc3Cl)c2-c2ccc(OC3CNC3)cc2)cc1 [compound 6f, 4-(4-(4-(azetidin-3-yloxy)phenyl)-3-(2-chlorophenyl)isoxazol-5-yl)phenol] | 15.8
CCCCN1CC(Oc2ccc(-c3c(-c4ccccc4Cl)noc3-c3ccc(O)cc3)cc2)C1 [compound 6h, 4-(4-(4-(1-butylazetidin-3-yloxy)phenyl)-3-(2-chlorophenyl)isoxazol-5-yl)-phenol hydrochloride] | 0.631
CCC(C)N1CC(Oc2ccc(-c3c(-c4ccccc4Cl)noc3-c3ccc(O)cc3)cc2)C1 (centres unmarked) [compound 6i, 4-(4-(4-(1-sec-butylazetidin-3-yloxy)phenyl)-3-(2-chlorophenyl)isoxazol-5-yl)-phenol hydrochloride] | 1
